Key:
CD8+ T cells = assay: Extracellular flux analysis (OCR, ECAR) of stimulated CD8+ T cells; format: cell-based, mouse; details: for Basal OCR: OS 100 μM or AmA 20 μM, Glu or Gal media, short-term hypoxia
Method: OCR and ECAR for CD8^+ T cells stimulated under different conditions were measured with XF24 and XF96 Extracellular Flux Analyzers (Seahorse Bioscience) following the manufacturer's instructions. Hypoxia samples were prepared in a hypoxia chamber under 1% O2. Dead cells were removed by dead cell removal kit using MACS and live cells were pre-incubated with 100 μM cobalt chloride before being removed from the hypoxia chamber and entered into the Seahorse analyzer. In experiments to determine the contribution of fatty acid oxidation (FAO) to OCR, 200 μM ETO was added 15 minutes before the Seahorse analysis. Briefly after repeated measures of basal respiration and lactate production, 1 μM OM was added to measure ATP leakage by OCR and glycolytic capacity by ECAR. 1.5 μM FCCP was then added to measure maximal respiration by OCR followed by addition of 100 nM Rotenone and 1 μM Antimycin A (AmA) to determine spare respiratory capacity by OCR and then 100 mM 2-DG to determine glycolytic reserve by ECAR.

activated CD8+ T cells = assay: In vitro stimulation of CD8+ T cells and drug treatments (flow cytometry, intracellular cytokine staining); format: cell-based, mouse
Method: Enriched CD8+ T cells were activated for 4 days in 6-well plates pre-coated with antibodies to CD3 (5 μg/ml) and CD28 (5 μg/mL) (BD Bioscience). For some samples, cells were transferred for the last 16 hours to a hypoxia chamber. To study the impact of hypoxia on relatively resting CD8+ T cells, enriched CD8+ T cells were stimulated for 48 hours under normoxia. Cells were then removed from the plates, washed and replated in fresh medium with 100 U/ml human IL-2 for 96 hours, followed by culture in normoxia or hypoxia with IL-2 for another 36 hours before analysis. Cells were cultured in Roswell Park Memorial Institute (RPMI) medium without Glu (Life Technologies) supplemented with Glu (10 mM) or Gal (10 mM), 10% dialyzed FBS (Life Technologies), 20 mM HEPES, 2 mM Glutamax, 1 mM sodium pyruvate, 0.05 mM 2-mercaptoethanol and 1% penicillin-streptomycin. Hypoxia experiments were performed in a Thermo Napco series 8000WJ CO2 incubator equipped with nitrogen tank for O2 replacement. O2 level was kept at 1% during CD8+ T cells hypoxia culture for time periods indicated in each assay. In all assays cell viability was assessed before staining. […] Drugs and corresponding vehicle controls were added as follows: 2-deoxy-D-glucose (2-DG, 2 mM, Sigma) or Fenofibrate (FF, 50 μM, Sigma) for the entire culture period; Etomoxir (Eto, 200 μM, Sigma) for the last 48 hours. DMSO concentrations were kept below 0.2% for all culture conditions.
CD8^+ T cells from spleens of naive C57Bl/6 mice were purified by negative selection using magnetic beads (MACS, STEMCELL Technologies). Enriched CD8^+ T cells were activated for 4 days in 6-well plates pre-coated with antibodies to CD3 (5 μg/ml) and CD28 (5 μg/mL) (BD Bioscience). For some samples, cells were transferred for the last 16 hours to a hypoxia chamber. To study the impact of hypoxia on resting CD8^+ T cells, purified enriched CD8^+ T cells were stimulated for 48 hours under normoxia. Cells were then washed off the plates and replated in fresh medium with 100 U/ml human IL-2 for 96 hours, followed by culture in normoxia or hypoxia with IL-2 for another 36 hours before analysis. Cells were cultured in Roswell Park Memorial Institute (RPMI) medium without Glu (Life Technologies) supplemented with Glu (10 mM) or Gal (10 mM), 10% dialyzed FBS (Life Technologies), 20 mM HEPES, 2 mM Glutamax, 1 mM sodium pyruvate, 0.05 mM 2-mercaptoethanol and 1% penicillin-streptomycin. Hypoxia experiments were performed in a Thermo Napco series 8000WJ CO2 incubator equipped with nitrogen tank for O2 replacement. O2 level was kept at 1% during CD8^+ T cells hypoxia culture for time periods indicated in each assay. Drugs and corresponding vehicle controls were added as follows: 2-deoxy-D-glucose (2-DG, 2 mM, Sigma) or Fenofibrate (FF, 50 μM, Sigma) for the entire culture period; Etomoxir (Eto, 200 μM, Sigma), Amidepsine A (AmA, 20 μM, Santa Cruz), or Orlistat (OS, 100 μM, Sigma) for the last 48 hours. DMSO concentrations were kept below 0.2% for all culture conditions.
For mitochondrial metabolic markers analysis, cells were stained with Mitosox Red (5 μM, MROS) and DioC6 (40 nM, MMP) (Life Technologies) at 37° C. for 30 minutes under either normoxia or hypoxia (for in vitro samples cultured prior to staining under hypoxia). For fatty acid uptake experiments, cells stimulated under different conditions in vitro or isolated from spleen and tumors of mice bearing 2 weeks or 1 month-old tumors were immediately incubated with 1 μM BODIPY FL C16 (Life tech) for 30 mins at 37° C. Cells were washed twice with cold PBS before surface staining. For Cpt1a staining, cells were stained for surface markers first followed by permeabilization with transcription factor buffer set (BD Pharmingen, San Diego, CA). Cells were stained with anti-Cpt1a antibody or mouse IgG2b isotype control antibody (abcam) at 5 μg/ml in 1× permwash for 45 mins at 4° C. […]

[1] = tested on: vaccine-induced CD8+ T cells; assay: FF treatment of vaccinated donor mice, splenic CD8+ T cells analysed before transfer; format: in vivo, mouse; details: samples incubated with Eto
Method: For in vivo treatment, fenofibrate (FF; at 100 mg/kg/day, Sigma) was first diluted in dimethylsulfoxide (DMSO) and then further diluted in PBS and given by oral gavage daily for 3 weeks. Control mice received diluent at the same volume. For adoptive transfer experiments, 1×10^7 in vitro activated CD8^+ T cells transduced with lentivectors or splenocytes from vaccinated mice treated with drugs and containing 5×10^4 Trp-1455 tetramer^+CD8^+ T cells per dose were injected intravenously into recipient mice. For FF/control treated splenocytes or wild type/PPAR-α KO splenocytes co-transfer experiments, splenocytes containing 10^5 Trp-1455 tetramer^+CD8^+ T cells from each group were mixed and transferred into CD90.1^+ recipient mice intravenously.
To assess how increased FA catabolism affects CD8+TIL functions, we vaccinated CD90.2+ mice congenic for CD45, and treated them for 3 weeks daily with FF (CD45.1 mice) or diluent (CD45.2 mice). Splenocytes from these mice were mixed at a 1:1 ratio of Trp-1-specific CD8+ T cells from the 2 donors and transferred into CD90.1+ recipient mice, which had been challenged with tumor cells and vaccinated 3 days later. Cells were transferred 2 days after vaccination (FIG. 6A).

COc1cc(C)c(C(=O)Oc2cc(C)c(C(=O)Oc3cc(C)c(C(=O)NC(C)C(=O)O)c(O)c3)c(O)c2)c(OC)c1 (stereo not shown) [AmA, Amidepsine A]
Basal OCR (CD8+ T cells): decreases
functions of T cells (activated CD8+ T cells; Gal media and hypoxia): decrease functions
PD-1 expression (activated CD8+ T cells; under hypoxia, AmA, Gal medium): decreases

CCOC(=O)[C@@]1(CCCCCCOc2ccc(Cl)cc2)CO1 [Eto, etomoxir]
OCR (CD8+ T cells; Eto 200 μM, CD8+ T cells stimulated in Glu or Gal media): decreases
FF-enhanced OCR of splenocytes [1]: blocked
functions and polyfunctionality of CD8+ T cells (activated CD8+ T cells; cultured with limited access to Glu and O2): decreases
PD-1 expression (activated CD8+ T cells; under hypoxia, FF 50 μM or Eto 200 μM): decreases

O=CC[C@@H](O)[C@H](O)[C@H](O)CO [2-DG, 2-deoxy-D-glucose]
O2 consumption rate (OCR) (CD8+ T cells; Glu medium with 2-DG 2 mM): decreases
OCR/ECAR ratio (CD8+ T cells; Glu medium with 2-DG 2 mM): augments
extracellular acidification rate (ECAR) (CD8+ T cells; Glu medium with 2-DG 2 mM): declines
PD-1 expression (activated CD8+ T cells; 2-DG compared to cells grown with Glu): more

CCCCCCCCCCC[C@@H](C[C@@H]1OC(=O)[C@H]1CCCCCC)OC(=O)[C@H](CC(C)C)NC=O [OS, Orlistat]
Basal OCR (CD8+ T cells): decreases
PD-1 expression (activated CD8+ T cells; under hypoxia, OS, regardless of other culture conditions): decreases
